From patent EP0048614B1, “1-N-acylated and 1-N-alkylated derivatives of 4-0-substituted -2-deoxystreptamine aminoglycosides” (ELI LILLY AND COMPANY, priority 1980, dated 1982)
In brackets after ≈: the same amount, converted by molar mass.

Key:
[1] = system: Staphylococcus aureus 3055; assay: Subcutaneous therapy of experimental bacterial infection in mice (ED50); format: in vivo; settings: Staphylococcus aureus, 3055, sc; mg/kg × 2 subcutaneous doses at 1 and 5 hours post infection; mice challenged with 1,794 LD50's; read-out: Effective Dose (ED50)
Procedure: Table II illustrates the effective dose (ED50, the effective dose to protect 50 percent of the test animals) for representative compounds of this invention against an experimental bacterial infection in mice.
The ED50 values were determined as described by W. E. Wick et al., Journal of Bacteriology, 81 [No. 2], 233-235 (1961).

Escherichia coli X563 = assay: Standard disc-plate method, zone of inhibition against apramycin-resistant strain; format: cell-based; settings: Escherichia coli, X563, read-out: Zone of Inhibition (diameter in mm), 15 mcg/disc; apramycin-resistant E. coli X563; one value for each of two test runs per compound
Description: Table III, shown below, illustrates the in vitro activity of 1-N-(S-y-amino-a-hydroxybutyryl)apramycin, 1-N-(RS-y-amino-a-hydroxybutyryl)apramycin, and 1-N-(S-y-amino-a-hydroxybutyryl)nebramine against an apramycin resistant strain of E. coli. The results below were obtained using the standard disc-plate method. The numerical values are the diameters in millimeters of the zones of inhibition observed against this bacterium. Compounds substituted with the y-amino-a-hydroxybutyryl and analogous side chains are useful in treating infections caused by apramycin resistant bacteria such as the one above.
The test organism (E. coli X563) used in the experiments summarized in Table III is resistant to apramycin due to a 3-N-acetyltransferase which enzymatically inactivates apramycin.

Proteus inconstans PR33 = assay: MIC, standard agar dilution test; format: cell-based; settings: Providencia alcalifaciens, PR33, read-out: Minimum Inhibitory Concentration
Description: (§1) The antibacterial activity of the deprotected compounds of this invention is illustrated by the following in vitro and in vivo test data obtained with representative compounds. In Table I, the minimum inhibitory concentration (MIC) for representative compounds against a wide range of gram-positive and gram-negative bacteria is presented. The MIC values were obtained by the standard agar dilution test.

[2] = system: Klebsiella pneumoniae KAE; assay: MIC, standard agar dilution test; format: cell-based; settings: Klebsiella pneumoniae, read-out: Minimum Inhibitory Concentration
Description: as §1

Escherichia coli TEM = assay: MIC, standard agar dilution test; format: cell-based; settings: read-out: Minimum Inhibitory Concentration
Description: as §1

[3] = system: Pseudomonas aeruginosa X528; assay: MIC, standard agar dilution test; format: cell-based; settings: Pseudomonas aeruginosa, X528, read-out: Minimum Inhibitory Concentration
Description: as §1

Shigella sonnei N9 = assay: MIC, standard agar dilution test; format: cell-based; settings: read-out: Minimum Inhibitory Concentration
Description: as §1

[4] = system: Hemophilus influenzae C.L.; assay: MIC, standard agar dilution test; format: cell-based; settings: Haemophilus influenzae, Hemophilus influenzae C.L., read-out: Minimum Inhibitory Concentration
Description: as §1

Enterobacter cloacae EB5 = assay: MIC, standard agar dilution test; format: cell-based; settings: Enterobacter cloacae, EB5, read-out: Minimum Inhibitory Concentration
Description: as §1

[5] = system: Staphylococcus aureus X400; assay: MIC, standard agar dilution test; format: cell-based; settings: Staphylococcus aureus, X400, read-out: Minimum Inhibitory Concentration, Staphylococcus aureus X400
Description: as §1

[6] = system: Pseudomonas aeruginosa X239; assay: MIC, standard agar dilution test; format: cell-based; settings: Pseudomonas aeruginosa, X239, read-out: Minimum Inhibitory Concentration
Description: as §1

[7] = system: Pseudomonas aeruginosa Ps18; assay: MIC, standard agar dilution test; format: cell-based; settings: Pseudomonas aeruginosa, PS18, read-out: Minimum Inhibitory Concentration
Description: as §1

[8] = system: Staphylococcus epidermidis EPI1; assay: MIC, standard agar dilution test; format: cell-based; settings: Staphylococcus epidermidis, EPI1; read-out: Minimum Inhibitory Concentration
Description: as §1

[9] = system: Enterobacter cloacae 265A; assay: MIC, standard agar dilution test; format: cell-based; settings: Enterobacter cloacae, 265A, read-out: Minimum Inhibitory Concentration
Description: as §1

Serratia marcescens SE3 = assay: MIC, standard agar dilution test; format: cell-based; settings: Serratia marcescens, SE3, read-out: Minimum Inhibitory Concentration
Description: as §1

Proteus rettgeri C24 = assay: MIC, standard agar dilution test; format: cell-based; settings: Providencia rettgeri; Proteus rettgeri C24; agar dilution; read-out: Minimum Inhibitory Concentration
Description: as §1

[10] = system: Staphylococcus aureus S13E; assay: MIC, standard agar dilution test; format: cell-based; settings: read-out: Minimum Inhibitory Concentration
Description: as §1

[11] = system: Streptococcus pyogenes C203; assay: MIC, standard agar dilution test; format: cell-based; settings: Streptococcus pyogenes, C203, read-out: Minimum Inhibitory Concentration
Description: as §1

[12] = system: Salmonella heidelberg X514; assay: MIC, standard agar dilution test; format: cell-based; settings: Salmonella enterica, X514, read-out: Minimum Inhibitory Concentration
Description: as §1

Serratia marcescens X99 = assay: MIC, standard agar dilution test; format: cell-based; settings: Serratia marcescens X99, read-out: Minimum Inhibitory Concentration
Description: as §1

[13] = system: Staphylococcus aureus X1.1; assay: MIC, standard agar dilution test; format: cell-based; settings: Staphylococcus aureus X1.1; agar dilution; read-out: Minimum Inhibitory Concentration
Description: as §1

[14] = system: Citrobacter freundii CF17; assay: MIC, standard agar dilution test; format: cell-based; settings: Citrobacter freundii, CF17, read-out: Minimum Inhibitory Concentration
Description: as §1

Hemophilus influenzae 76 = assay: MIC, standard agar dilution test; format: cell-based; settings: Haemophilus influenzae, Hemophilus influenzae 76, read-out: Minimum Inhibitory Concentration
Description: as §1

[15] = system: Salmonella typhimurium 1335; assay: MIC, standard agar dilution test; format: cell-based; settings: Salmonella enterica, TYPHIMURIUM, read-out: Minimum Inhibitory Concentration
Description: as §1

[16] = system: Streptococcus group D X66; assay: MIC, standard agar dilution test; format: cell-based; settings: DX66, read-out: Minimum Inhibitory Concentration
Description: as §1

Proteus rettgeri PR7 = assay: MIC, standard agar dilution test; format: cell-based; settings: Providencia rettgeri, PR7, read-out: Minimum Inhibitory Concentration, Proteus rettgeri PR7
Description: as §1

Escherichia coli N10 = assay: MIC, standard agar dilution test; format: cell-based; settings: Escherichia coli, N10, read-out: Minimum Inhibitory Concentration
Description: as §1

Escherichia coli EC14 = assay: MIC, standard agar dilution test; format: cell-based; settings: Escherichia coli, EC14, read-out: Minimum Inhibitory Concentration
Description: as §1

[17] = system: Streptococcus group D 9960; assay: MIC, standard agar dilution test; format: cell-based; settings: D9960, read-out: Minimum Inhibitory Concentration
Description: as §1

[18] = system: Staphylococcus aureus V41; assay: MIC, standard agar dilution test; format: cell-based; settings: Staphylococcus aureus, V41, read-out: Minimum Inhibitory Concentration
Description: as §1

[19] = system: Enterobacter aerogenes C32; assay: MIC, standard agar dilution test; format: cell-based; settings: Klebsiella aerogenes; Enterobacter aerogenes C32; agar dilution; read-out: Minimum Inhibitory Concentration
Description: as §1

[20] = system: Bordetella bronchiseptica 16; assay: MIC, standard agar dilution test; format: cell-based; settings: Bordetella bronchiseptica, 16, read-out: Minimum Inhibitory Concentration
Description: as §1

[21] = system: Staphylococcus epidermidis EPI2; assay: MIC, standard agar dilution test; format: cell-based; settings: Staphylococcus epidermidis EPI2; agar dilution; read-out: Minimum Inhibitory Concentration
Description: as §1

[22] = system: Streptococcus pneumoniae Park I; assay: MIC, standard agar dilution test; format: cell-based; settings: Streptococcus pneumoniae, read-out: Minimum Inhibitory Concentration
Description: as §1

[23] = system: Klebsiella pneumoniae X26; assay: MIC, standard agar dilution test; format: cell-based; settings: Klebsiella pneumoniae X26; agar dilution; read-out: Minimum Inhibitory Concentration
Description: as §1

[24] = system: Enterobacter aerogenes EB17; assay: MIC, standard agar dilution test; format: cell-based; settings: Klebsiella aerogenes; Enterobacter aerogenes EB17; agar dilution; read-out: Minimum Inhibitory Concentration
Description: as §1

[25] = system: Enterobacter aerogenes X68; assay: MIC, standard agar dilution test; format: cell-based; settings: Klebsiella aerogenes, Enterobacter aerogenes X68, read-out: Minimum Inhibitory Concentration
Description: as §1

Proteus morganii PR15 = assay: MIC, standard agar dilution test; format: cell-based; settings: Morganella morganii, PR15, read-out: Minimum Inhibitory Concentration
Description: as §1

With `CNC1C(OC2OC(CO)C(N)C(O)C2O)OC2CC(N)C(OC3C(N)CC(NC(=O)CN)C(O)C3O)OC2C1O` (centres unmarked) [Test Compound 3, 1-N-glycylapramycin] the ED50 [1] was 59.5 mg/kg, the zone of inhibition at 15 µg/disc (Escherichia coli X563) was < 8 mm and the MIC (Proteus inconstans PR33) was 128 µg/mL (≈ 215 µM). The MIC [2] was > 128 µg/mL, the MIC (Escherichia coli TEM) was 32 µg/mL (≈ 53.6 µM) and the MIC [3] was > 128 µg/mL. It also gave an MIC (Shigella sonnei N9) of 128 µg/mL (≈ 215 µM), an MIC [4] of 64 µg/mL (≈ 107 µM) and an MIC (Enterobacter cloacae EB5) of 128 µg/mL (≈ 215 µM). The MIC [5] was > 128 µg/mL, the MIC [6] was > 128 µg/mL and the MIC [7] was > 128 µg/mL. The MIC [8] was 64 µg/mL (≈ 107 µM), the MIC [9] was 128 µg/mL (≈ 215 µM) and the MIC (Serratia marcescens SE3) was 128 µg/mL (≈ 215 µM). For the same molecule, the MIC (Proteus rettgeri C24) was 64 µg/mL (≈ 107 µM), the MIC [10] was 64 µg/mL (≈ 107 µM) and the MIC [11] was > 128 µg/mL. The MIC [12] was 128 µg/mL (≈ 215 µM), the MIC (Serratia marcescens X99) was 64 µg/mL (≈ 107 µM) and the MIC [13] was 64 µg/mL (≈ 107 µM). For the same molecule, the MIC [14] was > 128 µg/mL, the MIC (Hemophilus influenzae 76) was 64 µg/mL (≈ 107 µM) and the MIC [15] was 128 µg/mL (≈ 215 µM). The MIC [16] was > 128 µg/mL, the MIC (Proteus rettgeri PR7) was > 128 µg/mL and the MIC (Escherichia coli N10) was > 128 µg/mL. The MIC (Escherichia coli EC14) was 128 µg/mL (≈ 215 µM), the MIC [17] was > 128 µg/mL and the MIC [18] was 128 µg/mL (≈ 215 µM). The MIC [19] was 64 µg/mL (≈ 107 µM), the MIC [20] was > 128 µg/mL and the MIC [21] was 64 µg/mL (≈ 107 µM). For the same molecule, the MIC [22] was > 128 µg/mL, the MIC [23] was 64 µg/mL (≈ 107 µM) and the MIC [24] was 64 µg/mL (≈ 107 µM). For the same molecule, the MIC [25] was 64 µg/mL (≈ 107 µM) and the MIC (Proteus morganii PR15) was > 128 µg/mL.
